Test results reported in ChEMBL document CHEMBL1201861, “Genomics of Drug Sensitity in Cancer screening data, Wellcome Trust Sanger Institute”.

Key:
Assay in all cases: cells
[1] = system: JVM-3; format: functional, cell-based; settings: Homo sapiens;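 also: growth inhibition of human JVM-3 cells, read out with a cell viability assay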
Description: SANGER: Inhibition of human JVM-3 cell growth in a cell viability assay.

[2] = system: CCRF-CEM; format: functional, cell-based; settings: Homo sapiens;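 also: inhibition of CCRF-CEM cell growth, measured by a cell viability assay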
Description: SANGER: Inhibition of human CCRF-CEM cell growth in a cell viability assay.

[3] = system: LAN-6; format: functional, cell-based, Homo sapiens; settings: Homo sapiens, LAN-6;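 also: growth inhibition of LAN-6 cells, determined with a cell viability assay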
Description: SANGER: Inhibition of human LAN-6 cell growth in a cell viability assay.

[4] = system: Hs-578T; format: functional, cell-based, Homo sapiens; settings: Homo sapiens, Hs-578T
Description: SANGER: Inhibition of human Hs-578-T cell growth in a cell viability assay.

[5] = system: NCI-H2087; format: functional, cell-based, Homo sapiens; settings: Homo sapiens, NCI-H2087;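 also: growth inhibition determined with a cell viability readout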
Description: SANGER: Inhibition of human NCI-H2087 cell growth in a cell viability assay.

[6] = system: KYSE-140; format: functional, cell-based, Homo sapiens; settings: Homo sapiens, KYSE-140;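 also: cell viability assay measuring growth inhibition in human KYSE-140 cells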
Description: SANGER: Inhibition of human KYSE-140 cell growth in a cell viability assay.

[7] = system: RCM-1; format: functional, cell-based, Homo sapiens; settings: Homo sapiens, RCM-1;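 also: growth inhibition of the RCM-1 line, determined with a cell viability readout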
Description: SANGER: Inhibition of human RCM-1 cell growth in a cell viability assay.

[8] = system: NCI-H2405; format: functional, cell-based, Homo sapiens; settings: Homo sapiens, NCI-H2405;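 also: growth inhibition of the human cell line, read out with a cell viability assay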
Description: SANGER: Inhibition of human NCI-H2405 cell growth in a cell viability assay.

[9] = system: KP-N-YN; format: functional, cell-based; settings: Homo sapiens;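 also: growth inhibition of KP-N-YN cells, read out with a cell viability assay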
Description: SANGER: Inhibition of human KP-N-YN cell growth in a cell viability assay.

[10] = system: LU-134-A; format: functional, cell-based; settings: Homo sapiens
Description: SANGER: Inhibition of human LU-134-A cell growth in a cell viability assay.

[11] = system: SCC-25; format: functional, cell-based, Homo sapiens; settings: Homo sapiens, SCC-25;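 also: growth inhibition of SCC-25 cells, measured with a cell viability assay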
Description: SANGER: Inhibition of human SCC-25 cell growth in a cell viability assay.

[12] = system: KYSE-450; format: functional, cell-based; settings: Homo sapiens;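 also: cell growth inhibition measured by a viability assay in human KYSE-450 cells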
Description: SANGER: Inhibition of human KYSE-450 cell growth in a cell viability assay.

[13] = system: GI-ME-N; format: functional, cell-based, Homo sapiens; settings: Homo sapiens, GI-ME-N;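 also: growth inhibition of human GI-ME-N cells, read out with a cell viability assay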
Description: SANGER: Inhibition of human GI-ME-N cell growth in a cell viability assay.

[14] = system: NCI-H810; format: functional, cell-based, Homo sapiens; settings: Homo sapiens, NCI-H810;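 also: IC50 reflects inhibition of cancer cell line growth, read out with a cell viability assay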
Description: SANGER: Inhibition of human NCI-H810 cell growth in a cell viability assay.

[15] = system: NCI-H2347; format: functional, cell-based, Homo sapiens; settings: Homo sapiens, NCI-H2347;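 also: growth inhibition of the cell line, read out with a cell viability assay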
Description: SANGER: Inhibition of human NCI-H2347 cell growth in a cell viability assay.

[16] = system: SW780; format: functional, cell-based, Homo sapiens; settings: Homo sapiens, SW780;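 also: growth inhibition of the cells, read out with a cell viability assay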
Description: SANGER: Inhibition of human SW780 cell growth in a cell viability assay.

[17] = system: BT-474; format: functional, cell-based, Homo sapiens; settings: Homo sapiens, BT-474
Description: SANGER: Inhibition of human BT-474 cell growth in a cell viability assay.

[18] = system: HCC1569; format: functional, cell-based, Homo sapiens; settings: Homo sapiens, HCC1569;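 also: growth inhibition of human HCC1569 cells, read out with a cell viability assay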
Description: SANGER: Inhibition of human HCC1569 cell growth in a cell viability assay.

[19] = system: HEC-1; format: functional, cell-based, Homo sapiens; settings: Homo sapiens, HEC-1;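 also: growth inhibition of the cell line, read out with a cell viability assay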
Description: SANGER: Inhibition of human HEC-1 cell growth in a cell viability assay.

[20] = system: KYSE-150 cell line; format: functional, cell-based, Homo sapiens; settings: Homo sapiens, KYSE-150;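 also: growth inhibition of human KYSE-150 cells, read out with a cell viability assay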
Description: SANGER: Inhibition of human KYSE-150 cell growth in a cell viability assay.

[21] = system: GT3TKB; format: functional, cell-based, Homo sapiens; settings: Homo sapiens, GT3TKB;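 also: growth inhibition of the cell line, read out with a cell viability assay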
Description: SANGER: Inhibition of human GT3TKB cell growth in a cell viability assay.

[22] = system: RXF 393; format: functional, cell-based; settings: Homo sapiens;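 also: growth inhibition of human RXF 393 cells, read out with a cell viability assay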
Description: SANGER: Inhibition of human RXF393 cell growth in a cell viability assay.

[23] = system: OE19; format: functional, cell-based, Homo sapiens; settings: Homo sapiens, OE19;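 also: growth inhibition of OE19 cells, measured through a cell viability read-out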
Description: SANGER: Inhibition of human OE19 cell growth in a cell viability assay.

[24] = system: MZ7-mel; format: functional, cell-based, Homo sapiens; settings: Homo sapiens, MZ7-mel;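 also: growth inhibition of human MZ7-mel cells, measured by a cell viability assay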
Description: SANGER: Inhibition of human MZ7-mel cell growth in a cell viability assay.

[25] = system: EW-24; format: functional, cell-based; settings: Homo sapiens;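 also: human EW-24 cancer cell line, growth inhibition read out via a cell viability assay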
Description: SANGER: Inhibition of human EW-24 cell growth in a cell viability assay.

[26] = system: MV4-11; format: functional, cell-based, MV-4-11; settings: Homo sapiens;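 also: cell viability readout measuring growth inhibition of human MV-4-11 cells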
Description: SANGER: Inhibition of human MV-4-11 cell growth in a cell viability assay.

[27] = system: GMS-10; format: functional, cell-based, Homo sapiens; settings: Homo sapiens, GMS-10;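 also: growth inhibition of GMS-10 cells, read out as cell viability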
Description: SANGER: Inhibition of human GMS-10 cell growth in a cell viability assay.

[28] = system: L-363; format: functional, cell-based; settings: Homo sapiens
Description: SANGER: Inhibition of human L-363 cell growth in a cell viability assay.

[29] = system: HT-1080; format: functional, cell-based, Homo sapiens; settings: Homo sapiens, HT-1080
Description: SANGER: Inhibition of human HT-1080 cell growth in a cell viability assay.

[30] = system: LoVo; format: functional, cell-based; settings: Homo sapiens;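 also: growth inhibition of human LoVo cells, read out with a cell viability assay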
Description: SANGER: Inhibition of human LoVo cell growth in a cell viability assay.

[31] = system: HCC70; format: functional, cell-based, Homo sapiens; settings: Homo sapiens, HCC70;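 also: cell viability assay measuring how strongly the compound suppresses proliferation of HCC70 cells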
Description: SANGER: Inhibition of human HCC70 cell growth in a cell viability assay.

[32] = system: WM-115; format: functional, cell-based, Homo sapiens; settings: Homo sapiens, WM-115
Description: SANGER: Inhibition of human WM-115 cell growth in a cell viability assay.

[33] = system: HT1197; format: functional, cell-based, Homo sapiens, HT-1197; settings: Homo sapiens, HT1197
Description: SANGER: Inhibition of human HT-1197 cell growth in a cell viability assay.

[34] = system: RCC10RGB; format: functional, cell-based, Homo sapiens; settings: Homo sapiens, RCC10RGB;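 also: growth inhibition of human RCC10RGB cells, read out by a cell viability assay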
Description: SANGER: Inhibition of human RCC10RGB cell growth in a cell viability assay.

[35] = system: MDA-MB-361; format: functional, cell-based, Homo sapiens; settings: Homo sapiens, MDA-MB-361
[36] = system: SK-LU-1; format: functional, cell-based, Homo sapiens; settings: Homo sapiens, SK-LU-1;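 also: cell viability assay measuring growth inhibition of human SK-LU-1 cells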
Description: SANGER: Inhibition of human SK-LU-1 cell growth in a cell viability assay.

[37] = system: TYK-nu; format: functional, cell-based, Homo sapiens; settings: Homo sapiens, TYK-nu;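 also: growth inhibition of human TYK-nu cells, read out by a cell viability assay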
Description: SANGER: Inhibition of human TYK-nu cell growth in a cell viability assay.

[38] = system: COR-L23; format: functional, cell-based, Homo sapiens; settings: Homo sapiens, COR-L23;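 also: cell viability assay measuring how strongly compounds suppress growth of COR-L23 cells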
Description: SANGER: Inhibition of human COR-L23 cell growth in a cell viability assay.

[39] = system: NCI-H358; format: functional, cell-based, Homo sapiens; settings: Homo sapiens, NCI-H358;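 also: growth inhibition of NCI-H358 human cells, read out with a cell viability assay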
Description: SANGER: Inhibition of human NCI-H358 cell growth in a cell viability assay.

[40] = system: COLO-741; format: functional, cell-based, Homo sapiens; settings: Homo sapiens, COLO-741
Description: SANGER: Inhibition of human COLO-741 cell growth in a cell viability assay.

[41] = system: MOLT-4; format: functional, cell-based; settings: Homo sapiens;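 also: growth inhibition of MOLT-4 cells, determined with a cell viability readout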
Description: SANGER: Inhibition of human MOLT-4 cell growth in a cell viability assay.

[42] = system: TGW; format: functional, cell-based; settings: Homo sapiens;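 also: growth inhibition of human TGW cells, read out with a cell viability assay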
Description: SANGER: Inhibition of human TGW cell growth in a cell viability assay.

[43] = system: SCC-9; format: functional, cell-based, Homo sapiens; settings: Homo sapiens, SCC-9;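 also: Read-out is a cell viability assay, with values giving inhibition of cell growth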
Description: SANGER: Inhibition of human SCC-9 cell growth in a cell viability assay.

[44] = system: Ca-Ski; format: functional, cell-based; settings: Homo sapiens;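 also: cell viability assay measuring inhibition of Ca-Ski cell growth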
Description: SANGER: Inhibition of human Ca-Ski cell growth in a cell viability assay.

[45] = system: RS4-11; format: functional, cell-based; settings: Homo sapiens;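 also: growth inhibition of RS4-11 cells, read out by a cell viability assay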
Description: SANGER: Inhibition of human RS4-11 cell growth in a cell viability assay.

[46] = system: ALL-PO; format: functional, cell-based; settings: Homo sapiens;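 also: growth inhibition of ALL-PO cells, read out by a cell viability assay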
Description: SANGER: Inhibition of human ALL-PO cell growth in a cell viability assay.

[47] = system: SK-MEL3; format: functional, cell-based, Homo sapiens, SK-MEL-3; settings: Homo sapiens, SK-MEL3;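 also: growth inhibition of human SK-MEL-3 cells, read out with a cell viability assay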
Description: SANGER: Inhibition of human SK-MEL-3 cell growth in a cell viability assay.

[48] = system: UACC-893; format: functional, cell-based, Homo sapiens; settings: Homo sapiens, UACC-893
Description: SANGER: Inhibition of human UACC-893 cell growth in a cell viability assay.

[49] = system: BV-173; format: functional, cell-based; settings: Homo sapiens
Description: SANGER: Inhibition of human BV-173 cell growth in a cell viability assay.

[50] = system: ONS-76; format: functional, cell-based, Homo sapiens; settings: Homo sapiens, ONS-76;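 also: growth inhibition of human ONS-76 cells, read out with a cell viability assay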
Description: SANGER: Inhibition of human ONS-76 cell growth in a cell viability assay.

[51] = system: D-502MG; format: functional, cell-based, Homo sapiens; settings: Homo sapiens, D-502MG
Description: SANGER: Inhibition of human D-502MG cell growth in a cell viability assay.

[52] = system: D-392MG; format: functional, cell-based, Homo sapiens; settings: Homo sapiens, D-392MG

Measured: IC50

C[C@]1(O)C[C@@H](c2nc(-c3ccc4ccc(-c5ccccc5)nc4c3)c3c(N)nccn32)C1 [LINSITINIB]
1490 nM: [47]
263 nM: [3]
338 nM: [45]
> 2560 nM: [1] | [2] | [4] | [5] | [6] | [7] | [8] | [9] | [11] | [12] | [13] | [14] | [15] | [16] | [17] | [18] | [19] | [20] | [21] | [22] | [23] | [24] | [25] | [26] | [27] | [29] | [30] | [31] | [32] | [33] | [34] | [35] | [36] | [37] | [38] | [40] | [41] | [42] | [43] | [44] | [46] | [48] | [49] | [50] | [51] | [52]
671 nM: [39]
1340 nM: [28]
2280 nM: [10]

C=CCc1cccc(/C=N/NC(=O)CN2CCN(Cc3ccccc3)CC2)c1O [PAC-1]
1240 nM: [39]
566 nM: [2]
> 2560 nM: [1] | [3] | [4] | [5] | [6] | [7] | [8] | [9] | [10] | [11] | [12] | [13] | [14] | [15] | [16] | [17] | [18] | [19] | [20] | [21] | [22] | [23] | [25] | [26] | [27] | [28] | [29] | [30] | [31] | [32] | [33] | [34] | [35] | [36] | [37] | [38] | [40] | [41] | [42] | [43] | [44] | [45] | [46] | [47] | [48] | [49] | [50] | [51] | [52]
2560 nM: [24]
